According to US20260335307A1, “ANTIMICROBIAL COMBINATIONS” (Helperby Therapeutics Limited, priority 2022, published 2026):

Assays:
[1] = system: ESBL E. coli; experiment: Chequerboard assay (OD600, MIC and FIC) of 4-mer combinations against ESBL E. coli; type: cell-based; details: for MIC combination therapy (Y): drug in 4-mer ceftazidime, doxycycline; for MIC Monotherapy (X): drug alone; for Ratio Y:X: MIC combination / MIC monotherapy
Description: (§1) Synergy is not predictable or expected when two or more actives are used in combination. […] One of the ways to assess whether synergy has been observed is to use the “chequerboard” technique. This is a well-accepted method that leads to the generation of a value called the fractional inhibitory concentration index (FICI). Orhan et al., J. Clin. Microbiol. 2005, 43(1):140 describes the chequerboard method and analysis in the paragraph bridging pages 140-141, and explains that the FICI value is a ratio of the sum of the MIC (Minimum Inhibitory Concentration) level of each individual component alone and in the mixture.
FICI or fractional inhibitory concentration index is the sum of the FICs of each antimicrobial when used in combination. The FIC or fractional inhibitory concentration of an antimicrobial in a combination, is the MIC of the antimicrobial in the combination divided by the MIC of the same antimicrobial when used alone. Minimum inhibitory concentrations are defined in the art as the lowest concentration of an antimicrobial that will inhibit the visible growth of a microorganism after overnight incubation.
There has in fact been very little previous work in this field. […] This method is applicable for any combination with “n” antimicrobial agents.
In this method, two antibiotics were “fixed” as part of a backbone whilst the two other antibiotics were varied over a doubling concentration scale beginning at the MIC (×1) for the effective dose in monotherapy against the organism being tested. The ΣFIC was then calculated as shown below.
The ΣFIC was divided by “0.5/n” where n=number of antimicrobials in the combination to provide FIC. The inventors opted for this expression because it more closely aligns with the 2-mer synergy levels. The same FIC scale as used for 2-mers was applied: synergy is observed when FIC is <0.5. An “Additive” effect is observed when FIC is 0.5 to <1. Indifference is observed when FIC is 1 to <2. Antagonism is observed when FIC is 2 to 4.
Synergy can be expressed as “ΣFIC≤0.25×n”.
The above method was used in the Examples herein.
The antimicrobial agents were sourced from commercially available sources. They were prepared by being weighed and dissolved in water, PBS, DMSO or acidified water to a final concentration from 1-10 mg/mL. Antimicrobial solutions were diluted to 10× highest concentration used in the experiment and subsequently diluted 2x over a series not exceeding 11 serial dilutions. These left the operator with a maximum of 12 different, descending concentrations of the chosen antimicrobials.
The bacteria were obtained from Ninewells Hospital and Medical School in Dundee, Scotland. They were obtained as patient strains and characterised by Vitek 2 screening. To prepare for the Examples below, the bacteria were grown overnight in Mueller Hinton Cation adjusted broth or until confluent in media with or without supplements. The bacteria were measured for OD600 and readings of <0.25 were returned to the incubator.
All data herein was produced using the same chequerboard assay.
20 uL of antibiotic A (backbone) and 20 uL of antibiotic B (backbone), at a single dilution, were pipetted into all wells of a 96-well plate to be used.
20 uL of the lowest concentration of antibiotic C (first variable) was pipetted into column 1 of the 96-well plate. The second concentration (2-fold more concentrate) was pipetted into column 2. This process was repeated until all concentrations of antibiotic […] to be used were complete.
20 uL of the lowest concentration of antibiotic D (second variable) were pipetted into row A of the 96-well plate. The second concentration (2-fold more concentrate) was pipetted into row B. This process was repeated until all concentrations of antibiotic […] to be used were complete.
120 uL of sterile media (BHI/MHB2) was added.
20 ul of prepared bacterial culture was added.
Plates were sealed with lids and left to incubate for 16 hours, overnight.

[2] = system: KPC (Klebsiella pneumoniae carbapenemase) producing K. pneumoniae; experiment: Chequerboard assay (percentage kill from OD600, MIC and FIC) of 4-mer combination against KPC producing K. pneumoniae; type: cell-based; details: Example 4, backbone ceftazidime + colistin
Description: as §1
FICI or fractional inhibitory concentration index is the sum of the FICs of each antimicrobial when used in combination. […]
In this method, two antibiotics were “fixed” as part of a backbone whilst the two other antibiotics were varied over a doubling concentration scale beginning at the MIC (×1) for the effective dose in monotherapy against the organism being tested. The ΣFIC was then calculated as shown below. […]
Synergy can be expressed as “ΣFIC≤0.25×n”. […]
The bacteria were obtained from Ninewells Hospital and Medical School in Dundee, Scotland. […] The bacteria were measured for OD600 and readings of <0.25 were returned to the incubator. […]

[3] = Example 1, backbone ceftazidime + doxycycline, colistin, rifampicin
[4] = Example 2, backbone colistin + doxycycline, colistin, levofloxacin
[5] = Example 3, backbone rifampicin + doxycycline, rifampicin, levofloxacin
[6] = Example 1, backbone ceftazidime + doxycycline
[7] = Example 1, backbone colistin + ceftazidime
[8] = Example 2, backbone colistin + doxycycline
[9] = Example 3, backbone rifampicin + doxycycline

Compound | MIC ([1]; Escherichia coli, read-out: isolate resistant to ceftazidime at) | MIC combination therapy (Y) [1, 3] | MIC combination therapy (Y) [1, 4] | MIC combination therapy (Y) [1, 5] | MIC Monotherapy (X) ([2]; drug alone) | MIC combination therapy (Y) ([2]; drug in 4-mer ceftazidime, doxycycline, rifampicin, colistin) | MIC Monotherapy (X) [1, 6] | MIC Monotherapy (X) [1, 7] | MIC combination therapy (Y) ([1]; Example 1, backbone colistin + ceftazidime, colistin, rifampicin) | MIC Monotherapy (X) [1, 8] | MIC Monotherapy (X) [1, 9] | Ratio Y:X [1, 8] | Ratio Y:X [1, 9]
CC(C)(O/N=C(\C(=O)N[C@@H]1C(=O)N2C(C(=O)[O-])=C(C[n+]3ccccc3)CS[C@H]12)c1csc(N)n1)C(=O)O [Ceftazidime] | ≥ 32 µg/mL | 4 µg/mL | 16 µg/mL | 16 µg/mL |  |  |  |  |  |  |  |  | 
C[C@H]1c2cccc(O)c2C(=O)C2=C(O)[C@]3(O)C(=O)C(C(N)=O)=C(O)[C@@H](N(C)C)[C@@H]3[C@@H](O)[C@@H]21 [Doxycycline] |  |  |  |  | 1 µg/mL | 0.25 µg/mL | 1 µg/mL | 1 µg/mL | 0.25 µg/mL | 1 µg/mL | 1 µg/mL |  | 
C[C@H]1COc2c(N3CCN(C)CC3)c(F)cc3c(=O)c(C(=O)O)cn1c23 [Levofloxacin] |  |  | 0.25 µg/mL | 0.25 µg/mL |  |  |  |  |  | 8 µg/mL | 8 µg/mL | 0.03125 | 0.03125
CO[C@H]1/C=C/O[C@@]2(C)Oc3c(C)c(O)c4c(O)c(c(/C=N/N5CCN(C)CC5)c(O)c4c3C2=O)NC(=O)/C(C)=C\C=C\[C@H](C)[C@H](O)[C@@H](C)[C@@H](O)[C@@H](C)[C@H](OC(C)=O)[C@@H]1C [Rifampicin] |  | 0.5 µg/mL |  |  |  |  | 4 µg/mL | 4 µg/mL |  |  | 1 µg/mL |  | 
